Experimental data: ChEMBL document CHEMBL1201862, “PubChem BioAssay data set” (2004)
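Briefly, cells in 96-well plates were exposed to five compound concentrations for 48 h, and endpoints were estimated by linear interpolation. GI50: concentration for 50% inhibition of growth.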 Calls of active or inactive are those of the source. Rule as the data show it: active = GI50 up to about 1.1 µM and inactive = higher.

Columns and labels:
Assay in all cases: inhibition of tumour cell growth, NCI panel, 48 h
MCF7 = test system: MCF7
SW-620 = test system: SW-620
NCI-H460 = test system: NCI-H460
SNB-75 = test system: SNB-75
HT-29 = test system: HT-29
U-251 = test system: U-251
SN12C = test system: SN12C
MDA-MB-435 = test system: MDA-MB-435
OVCAR-8 = test system: OVCAR-8
NCI-H226 = test system: NCI-H226
A498 = test system: A498
T47D = test system: T47D
Malme-3M = test system: Malme-3M
SF-295 = test system: SF-295
SF-268 = test system: SF-268
NCI-H522 = test system: NCI-H522
RXF 393 = test system: RXF 393
LOX IMVI = test system: LOX IMVI
HCT-116 = test system: HCT-116
HCC 2998 = test system: HCC 2998

| SMILES | GI50 (MCF7) | GI50 (SW-620) | GI50 (NCI-H460) | GI50 (SNB-75) | GI50 (HT-29) | GI50 (U-251) | GI50 (SN12C) | GI50 (MDA-MB-435) | GI50 (OVCAR-8) | GI50 (NCI-H226) | GI50 (A498) | GI50 (T47D) | GI50 (Malme-3M) | GI50 (SF-295) | GI50 (SF-268) | GI50 (NCI-H522) | GI50 (RXF 393) | GI50 (LOX IMVI) | GI50 (HCT-116) | GI50 (HCC 2998) |
| --- | --- | --- | --- | --- | --- | --- | --- | --- | --- | --- | --- | --- | --- | --- | --- | --- | --- | --- | --- | --- |
| CC1CC(C)(C)CC(OCCN2CCCCC2)(c2ccccc2)C1 (configuration not stated) | 11.2 µM (inactive) | 13.9 µM (inactive) | 4.21 µM (inactive) | 15.1 µM (inactive) | 1.89 µM (inactive) | 11.6 µM (inactive) | 12 µM (inactive) | 11.9 µM (inactive) | 15.2 µM (inactive) | 20.7 µM (inactive) | 12.8 µM (inactive) | 12.9 µM (inactive) | 10.4 µM (inactive) | 10.7 µM (inactive) | 10.8 µM (inactive) | 5.87 µM (inactive) | 10.9 µM (inactive) | 7.13 µM (inactive) | 4.4 µM (inactive) | – |
| COc1cc2c(cc1OC)C1CN3CCCC3C(O)C1c1cc(OC)c(OC)cc1-2 (configuration not stated) | > 100 µM (inactive) | > 100 µM (inactive) | > 100 µM (inactive) | – | > 100 µM (inactive) | > 100 µM (inactive) | > 100 µM (inactive) | > 100 µM (inactive) | > 100 µM (inactive) | – | > 100 µM (inactive) | 15.3 µM (inactive) | > 100 µM (inactive) | > 100 µM (inactive) | > 100 µM (inactive) | > 100 µM (inactive) | 82.8 µM (inactive) | > 100 µM (inactive) | > 100 µM (inactive) | > 100 µM (inactive) |
| O=C1C=Cc2cscc21 | 15.3 µM (inactive) | 33.3 µM (inactive) | > 100 µM (inactive) | 42.5 µM (inactive) | 35.5 µM (inactive) | 37.9 µM (inactive) | 28.1 µM (inactive) | 48.5 µM (inactive) | 32.6 µM (inactive) | – | > 100 µM (inactive) | 27.5 µM (inactive) | 27 µM (inactive) | 49.4 µM (inactive) | 92.5 µM (inactive) | 19.6 µM (inactive) | 16.6 µM (inactive) | 35.8 µM (inactive) | 15.3 µM (inactive) | – |
| Cc1ccc2c(=O)c(C(=O)NNC(=S)NC3CCCCC3)c[nH]c2n1 | 83.6 µM (inactive) | 40.6 µM (inactive) | 80 µM (inactive) | – | 53.1 µM (inactive) | 65.9 µM (inactive) | 78.7 µM (inactive) | 30.1 µM (inactive) | > 100 µM (inactive) | 23.9 µM (inactive) | > 100 µM (inactive) | 46.9 µM (inactive) | 65.8 µM (inactive) | 56.8 µM (inactive) | 96.8 µM (inactive) | 51.6 µM (inactive) | > 100 µM (inactive) | 51.3 µM (inactive) | 99.5 µM (inactive) | – |
| OC1COC(OCc2ccccc2)C(O)C1O (configuration not stated) | > 100 µM (inactive) | > 100 µM (inactive) | > 100 µM (inactive) | – | > 100 µM (inactive) | > 100 µM (inactive) | > 100 µM (inactive) | > 100 µM (inactive) | > 100 µM (inactive) | > 100 µM (inactive) | > 100 µM (inactive) | > 100 µM (inactive) | > 100 µM (inactive) | > 100 µM (inactive) | > 100 µM (inactive) | > 100 µM (inactive) | > 100 µM (inactive) | > 100 µM (inactive) | > 100 µM (inactive) | > 100 µM (inactive) |
| CN(C)NC(=S)Nc1ccccc1Br | > 100 µM (inactive) | > 100 µM (inactive) | > 100 µM (inactive) | 46.5 µM (inactive) | > 100 µM (inactive) | > 100 µM (inactive) | – | > 100 µM (inactive) | > 100 µM (inactive) | > 100 µM (inactive) | > 100 µM (inactive) | > 100 µM (inactive) | > 100 µM (inactive) | > 100 µM (inactive) | – | > 100 µM (inactive) | > 100 µM (inactive) | > 100 µM (inactive) | > 100 µM (inactive) | – |
| COC(=O)CCCC(=O)NC1=C(NCc2ccccc2)C(=O)c2ccccc2C1=O | 30.3 µM (inactive) | 60.8 µM (inactive) | 52 µM (inactive) | > 100 µM (inactive) | – | > 100 µM (inactive) | 52.5 µM (inactive) | 42.4 µM (inactive) | 68.4 µM (inactive) | – | > 100 µM (inactive) | 59.3 µM (inactive) | 15.5 µM (inactive) | > 10 µM (inactive) | > 100 µM (inactive) | 70.5 µM (inactive) | – | 46.2 µM (inactive) | 32.1 µM (inactive) | > 100 µM (inactive) |
| Oc1ccc(CCc2cc(O)cc(O)c2)cc1 [DIHYDRORESVERATROL] | > 100 µM (inactive) | > 100 µM (inactive) | > 100 µM (inactive) | > 100 µM (inactive) | > 100 µM (inactive) | > 100 µM (inactive) | 72.3 µM (inactive) | > 100 µM (inactive) | > 100 µM (inactive) | 53.5 µM (inactive) | > 100 µM (inactive) | > 100 µM (inactive) | > 100 µM (inactive) | > 100 µM (inactive) | > 100 µM (inactive) | > 100 µM (inactive) | > 100 µM (inactive) | – | > 100 µM (inactive) | – |
| CC(=O)c1cccc(NC(=O)/C(=N\NC(=S)NN)C2C(=O)Nc3ccccc3[S+]2[O-])c1 (configuration not stated) | > 100 µM (inactive) | > 100 µM (inactive) | – | > 100 µM (inactive) | > 100 µM (inactive) | > 100 µM (inactive) | > 100 µM (inactive) | > 100 µM (inactive) | > 100 µM (inactive) | > 100 µM (inactive) | > 100 µM (inactive) | > 100 µM (inactive) | > 100 µM (inactive) | > 100 µM (inactive) | > 100 µM (inactive) | > 100 µM (inactive) | > 100 µM (inactive) | > 100 µM (inactive) | > 100 µM (inactive) | – |
| O=C1NC(N2CCOCC2)=N/C1=C\c1ccccc1O | > 100 µM (inactive) | > 100 µM (inactive) | – | > 100 µM (inactive) | > 100 µM (inactive) | > 100 µM (inactive) | > 100 µM (inactive) | > 100 µM (inactive) | > 100 µM (inactive) | > 100 µM (inactive) | > 100 µM (inactive) | > 100 µM (inactive) | > 100 µM (inactive) | > 100 µM (inactive) | > 100 µM (inactive) | > 100 µM (inactive) | > 100 µM (inactive) | > 100 µM (inactive) | > 100 µM (inactive) | – |
| CC1(Cc2cc3c(cc2C2(c4ccc([N+](=O)[O-])cc4)OCCO2)OCO3)OCCO1 | 51.8 µM (inactive) | > 100 µM (inactive) | 59.8 µM (inactive) | – | > 100 µM (inactive) | 71.3 µM (inactive) | > 100 µM (inactive) | 98.2 µM (inactive) | 59.2 µM (inactive) | 45 µM (inactive) | > 100 µM (inactive) | > 100 µM (inactive) | > 100 µM (inactive) | > 100 µM (inactive) | > 100 µM (inactive) | 24.7 µM (inactive) | 86.1 µM (inactive) | > 100 µM (inactive) | > 100 µM (inactive) | > 100 µM (inactive) |
| COc1cc([N+](=O)[O-])c(OC)c2c(Nc3ccc(S(=O)(=O)O)c4cc(S(=O)(=O)O)cc(S(=O)(=O)O)c34)cc(C)nc12 | > 100 µM (inactive) | > 100 µM (inactive) | – | > 100 µM (inactive) | > 100 µM (inactive) | > 100 µM (inactive) | > 100 µM (inactive) | > 100 µM (inactive) | > 100 µM (inactive) | > 100 µM (inactive) | > 100 µM (inactive) | > 100 µM (inactive) | > 100 µM (inactive) | – | > 100 µM (inactive) | > 100 µM (inactive) | > 100 µM (inactive) | > 100 µM (inactive) | > 100 µM (inactive) | – |
| CC(=O)OCC1OC(O[C@H]2C=C[C@@H](C(=O)OCc3ccccc3)n3c(=O)n(-c4ccccc4)c(=O)n32)C(OC(C)=O)C(OC(C)=O)C1OC(C)=O (some centres not stated) | 1.17 µM (inactive) | 1.77 µM (inactive) | 1.58 µM (inactive) | 10.9 µM (inactive) | 1.56 µM (inactive) | 2.14 µM (inactive) | 1.94 µM (inactive) | 2.07 µM (inactive) | 2.48 µM (inactive) | 4.55 µM (inactive) | 2.55 µM (inactive) | 2.62 µM (inactive) | – | 10.6 µM (inactive) | 1.78 µM (inactive) | 0.986 µM (active) | 2.24 µM (inactive) | 1.2 µM (inactive) | 2.22 µM (inactive) | 1.73 µM (inactive) |
| O=C1NC(c2c(Cl)cccc2Cl)Nc2ccccc21 (configuration not stated) | 47.3 µM (inactive) | 30.5 µM (inactive) | 26.5 µM (inactive) | 2.89 µM (inactive) | 28.1 µM (inactive) | 36.3 µM (inactive) | 65.6 µM (inactive) | 14.1 µM (inactive) | 47.1 µM (inactive) | 40.2 µM (inactive) | 85.7 µM (inactive) | > 100 µM (inactive) | 24.8 µM (inactive) | 47.3 µM (inactive) | 54.5 µM (inactive) | 25.9 µM (inactive) | 70 µM (inactive) | 47.2 µM (inactive) | 25.4 µM (inactive) | – |
| CC(C)(C)c1ccc(O)c(C[N+](C)(C)C)c1 | > 100 µM (inactive) | > 100 µM (inactive) | > 100 µM (inactive) | > 100 µM (inactive) | > 100 µM (inactive) | > 100 µM (inactive) | > 100 µM (inactive) | > 100 µM (inactive) | > 100 µM (inactive) | – | 47.5 µM (inactive) | > 100 µM (inactive) | > 100 µM (inactive) | > 100 µM (inactive) | > 100 µM (inactive) | 34.3 µM (inactive) | > 100 µM (inactive) | > 100 µM (inactive) | > 100 µM (inactive) | – |
